# Data: patent US9737075B2, “Synergistic benzoxaborole-containing anti-fungicidal composition” (The Penn State Research Foundation, priority 2015, dated 2017)
# Like-named read-outs stand apart in the source and are kept apart here.
# Key:
# Assay type in all cases: cell-based
# Sclerotinia homoeocarpa = experiment: Broth microdilution MIC of individual antifungals; conditions: Sclerotinia homoeocarpa, individual antifungal, 25% PDB, about 25° C., 72 hours, range over N independent triplicate studies; for MIC: Clarireedia homoeocarpa, read-out: Independent MIC
# Pythium aphanodermatum = experiment: Broth microdilution MIC of individual antifungals; conditions: individual antifungal, 25% PDB, about 25° C., 72 hours, range over N independent triplicate studies
# Mucor sp. = experiment: Broth microdilution MIC of individual antifungals; conditions: individual antifungal, 25% PDB, about 25° C., 72 hours, range over N independent triplicate studies
# Aureobasidium pullulans = experiment: Broth microdilution MIC of individual antifungals; conditions: individual antifungal, 25% PDB, about 25° C., 72 hours, range over N independent triplicate studies; for MIC: read-out: Independent MIC
# Aspergillus fumigatus = experiment: Broth microdilution MIC of individual antifungals; conditions: individual antifungal, 25% PDB, about 25° C., 72 hours, range over N independent triplicate studies; for MIC: read-out: Independent MIC
# Fusarium graminearum = experiment: microbe, parasite or virus in culture; conditions: Fusarium graminearum; for MIC: 72 h, read-out: Independent MIC; for Independent MIC: individual antifungal, 25% PDB, about 25° C., 72 hours, range over N independent triplicate studies
# Penicillium chrysogenum = experiment: Broth microdilution MIC of individual antifungals; conditions: individual antifungal, 25% PDB, about 25° C., 72 hours, range over N independent triplicate studies; for MIC: read-out: Independent MIC
# [1] = system: Mycosphaerella zeae-maydis; experiment: Broth microdilution MIC of individual antifungals; conditions: individual antifungal, 25% PDB, about 25° C., 72 hours, range over N independent triplicate studies; for MIC: Didymella maydis
# Magnaporthe grisea = experiment: microbe, parasite or virus in culture; conditions: for MIC: Pyricularia oryzae, 72 h, read-out: Independent MIC
# Phytophthora pini = experiment: Broth microdilution MIC of individual antifungals; conditions: individual antifungal, 25% PDB, about 25° C., 72 hours, range over N independent triplicate studies
# Botrytis cinerea 10-1728 = experiment: Broth microdilution MIC of individual antifungals; conditions: Botrytis cinerea 10-1728, individual antifungal, 25% PDB, about 25° C., 72 hours, range over N independent triplicate studies; for MIC: 101728, read-out: Independent MIC
# Aspergillus niger = experiment: Broth microdilution MIC of individual antifungals; conditions: individual antifungal, 25% PDB, about 25° C., 72 hours, range over N independent triplicate studies; for MIC: read-out: Independent MIC
# [2] = system: Colletotrichum orbiculare; experiment: Broth microdilution MIC of individual antifungals; conditions: individual antifungal, 25% PDB, about 25° C., 72 hours, range over N independent triplicate studies; for MIC: read-out: Independent MIC
# Aspergillus flavus = experiment: Broth microdilution MIC of individual antifungals; conditions: for MIC: read-out: Independent MIC
# Botrytis cinerea B17 = experiment: Broth microdilution MIC of individual antifungals; conditions: Botrytis cinerea B17, individual antifungal, 25% PDB, about 25° C., 72 hours, range over N independent triplicate studies; for MIC: read-out: Independent MIC
# Stachybotrys chartarum = experiment: Broth microdilution MIC of individual antifungals; conditions: individual antifungal, 25% PDB, about 25° C., 72 hours, range over N independent triplicate studies; for MIC: read-out: Independent MIC
# Alternaria solani = experiment: Broth microdilution MIC of individual antifungals; conditions: individual antifungal, 25% PDB, about 25° C., 72 hours, range over N independent triplicate studies; for MIC: read-out: Independent MIC
# Rhizopus sp. = experiment: Broth microdilution MIC of individual antifungals; conditions: Rhizopus sp., individual antifungal, 25% PDB, about 25° C., 72 hours, range over N independent triplicate studies; for MIC: Rhizopus, 72 h, read-out: Independent MIC
# [3] = system: Fusarium oxysporum f. sp. lycopersici; experiment: Broth microdilution MIC of individual antifungals; conditions: individual antifungal, 25% PDB, about 25° C., 72 hours, range over N independent triplicate studies
# Fusarium oxysporum ST33 = experiment: Broth microdilution MIC of individual antifungals; conditions: individual antifungal, 25% PDB, about 25° C., 72 hours, range over N independent triplicate studies
# [4] = system: Fusarium solani f. sp. pisi (MP VI); experiment: Broth microdilution MIC of individual antifungals; conditions: Fusarium solani f. sp. pisi (MP VI), individual antifungal, 25% PDB, about 25° C., 72 hours, range over N independent triplicate studies; for MIC: read-out: Independent MIC
# Candida albicans = experiment: Broth microdilution MIC of individual antifungals; conditions: individual antifungal, 25% PDB, about 25° C., 72 hours, range over N independent triplicate studies; for MIC: read-out: Independent MIC
# Fusarium verticillioides = experiment: Broth microdilution MIC of individual antifungals; conditions: individual antifungal, 25% PDB, about 25° C., 72 hours, range over N independent triplicate studies; for MIC: read-out: Independent MIC
# Rhizoctonia solani = experiment: Broth microdilution MIC of individual antifungals; conditions: individual antifungal, 25% PDB, about 25° C., 72 hours, range over N independent triplicate studies, read-out: Independent MIC
# [5] = system: two dozen different fungal organisms; experiment: Broth microdilution MIC, summary over the organisms examined; conditions: against many species tested here
# Experimental: All antifungal susceptibility assays were conducted in triplicate and N independent times. Thus, the inhibition studies were conducted a total of 3·N times. […] Thus, each synergy assay (combination of two antifungals) was conducted in conjunction with independent MIC determination. FICI values were calculated by comparing the inhibition activity of the combination (benzoxaborole+another antifungal) against the efficacy of the individual antifungal within the same experiment (using the same experimental conditions).
# The studies were performed in flat bottom, 96-well microtiter plates (Greiner Bio-One).
# Plates sealed with clear polyester film (VWR) were incubated at a temperature of about 25° C. The progress of fungal growth was monitored at 48 hours, 72 hours, 7 days, and 15 days. […] In order to establish appropriate comparison between the different fungi, the FICI (thus, the MICs used) determination was done at 72 hours for all cases discussed herein.
# The MICs of the individual antifungals (MICBoron and MICA) and in combination (MICBA) were determined after 72 hours of incubation. […] MICA is defined as the MIC value of every other individual non-benzoxaborole-based antifungal. MICBA is defined as the MIC value when the benzoxaborole antifungal is combined with another non-benzoxaborole antifungal. […] The combination studies were performed in triplicate in flat bottom 96-well microtiter plates with a final media volume of 0.2 mL/well.
# [6] = individual antifungal, 25% PDB, about 25° C., 72 hours, range over N independent triplicate studies
molecule,measurement,setting,value
"COC(=O)NC(=S)Nc1ccccc1NC(=S)NC(=O)OC [Thiophanate-Methyl, thiophanate-methyl]",MIC,Sclerotinia homoeocarpa,0.5 to 1 µg/mL
same,MIC,Pythium aphanodermatum,400 µg/mL
same,MIC,Mucor sp.,200 to 400 µg/mL
same,MIC,Aureobasidium pullulans,0.1 to 0.39 µg/mL
same,MIC,Aspergillus fumigatus,50 to 100 µg/mL
same,MIC,Fusarium graminearum,100 to 400 µg/mL
same,MIC,Penicillium chrysogenum,12.5 µg/mL
same,MIC,[1],25 to 50 µg/mL
same,MIC,Magnaporthe grisea,25 to 50 µg/mL
same,MIC,Phytophthora pini,25 µg/mL
same,MIC,Botrytis cinerea 10-1728,200 to 400 µg/mL
same,MIC,Aspergillus niger,25 µg/mL
"CC1(C(=O)Nc2ccc(O)c(Cl)c2Cl)CCCCC1 [Fenhexamid, fenhexamid]",MIC,[2],100 to 200 µg/mL
same,MIC,Sclerotinia homoeocarpa,64 µg/mL
same,MIC,Aspergillus flavus; 72 h,3.12 to 6.25 µg/mL
same,MIC,Pythium aphanodermatum,0.78 to 0.8 µg/mL
same,MIC,Mucor sp.,100 µg/mL
same,MIC,Aureobasidium pullulans,100 µg/mL
same,MIC,Aspergillus fumigatus,400 µg/mL
same,MIC,Botrytis cinerea B17,4 µg/mL
same,MIC,Fusarium graminearum,25 to 50 µg/mL
same,MIC,[1],100 to 200 µg/mL
same,MIC,Stachybotrys chartarum,12.5 µg/mL
same,MIC,Magnaporthe grisea,3.12 µg/mL
same,MIC,Alternaria solani,100 to 200 µg/mL
same,MIC,Phytophthora pini,50 µg/mL
same,MIC,Botrytis cinerea 10-1728,200 µg/mL
"Cc1cc(C)nc(Nc2ccccc2)n1 [Pyrimethanil, pyrimethanil]",MIC,Sclerotinia homoeocarpa,50 to 100 µg/mL
same,MIC,Rhizopus sp.,200 to 400 µg/mL
same,MIC,Aspergillus flavus; [6],25 µg/mL
same,MIC,Pythium aphanodermatum,100 to 200 µg/mL
same,MIC,Mucor sp.,200 µg/mL
same,MIC,Aureobasidium pullulans,25 to 50 µg/mL
same,MIC,Aspergillus fumigatus,0.78 to 1 µg/mL
same,MIC,Botrytis cinerea B17,50 to 100 µg/mL
same,MIC,Fusarium graminearum,200 µg/mL
same,MIC,[1],6.25 to 12.5 µg/mL
same,MIC,Stachybotrys chartarum,50 to 90 µg/mL
same,MIC,Magnaporthe grisea,100 to 200 µg/mL
same,MIC,[3],200 µg/mL
same,MIC,Alternaria solani,100 to 200 µg/mL
same,MIC,Fusarium oxysporum ST33,200 µg/mL
same,MIC,Phytophthora pini,100 µg/mL
same,MIC,Botrytis cinerea 10-1728,50 to 100 µg/mL
same,MIC,[4],200 to 400 µg/mL
same,MIC,Aspergillus niger,100 to 200 µg/mL
same,MIC,Candida albicans,200 µg/mL
same,MIC,Fusarium verticillioides,200 µg/mL
mancozeb,Independent MIC,[2],(6.25-12.5) μg/mL
same,Independent MIC,Sclerotinia homoeocarpa,(8-20) μg/mL
same,Independent MIC,Rhizopus sp.,(25-80) μg/mL
same,Independent MIC,Aspergillus flavus; [6],(6.25-25)^ μg/mL
same,Independent MIC,Pythium aphanodermatum,(28-50) μg/mL
same,Independent MIC,Mucor sp.,(50-100) μg/mL
same,Independent MIC,Aureobasidium pullulans,(6.25-12.5) μg/mL
same,Independent MIC,Aspergillus fumigatus,100 µg/mL
same,Independent MIC,Botrytis cinerea B17,(32-64) μg/mL
same,Independent MIC,Fusarium graminearum,12.5 µg/mL
same,Independent MIC,Penicillium chrysogenum,(6.25-12.5) μg/mL
same,Independent MIC,[1],(3.125-8) ^ μg/mL
same,Independent MIC,Stachybotrys chartarum,(3.125-6.25) μg/mL
same,Independent MIC,"Magnaporthe grisea; Magnaporthe grisea, individual antifungal, 25% PDB, about 25° C., 72 hours, range over N independent triplicate studies",6.25 µg/mL
same,Independent MIC,[3],(6-12.5) μg/mL
same,Independent MIC,Alternaria solani,(10-12.5) μg/mL
same,Independent MIC,Fusarium oxysporum ST33,(32-80) μg/mL
same,Independent MIC,Phytophthora pini,0.39 µg/mL
same,Independent MIC,Botrytis cinerea 10-1728,3.125 µg/mL
same,Independent MIC,[4],100 µg/mL
same,Independent MIC,Aspergillus niger,(25-50) μg/mL
same,Independent MIC,Candida albicans,50 µg/mL
same,Independent MIC,Fusarium verticillioides,(4-8) μg/mL
"N#Cc1c(Cl)c(Cl)c(Cl)c(C#N)c1Cl [Chlorothalonil, chlorothalonil]",MIC,Rhizoctonia solani,1.56 µg/mL
same,MIC,[2],0.39 µg/mL
same,MIC,Sclerotinia homoeocarpa,0.39 to 0.78 µg/mL
same,MIC,Rhizopus sp.,0.78 µg/mL
same,MIC,Aspergillus flavus; [6],0.1 to 0.2 µg/mL
same,MIC,Mucor sp.,0.78 to 1 µg/mL
same,MIC,Aspergillus fumigatus,0.1 to 0.2 µg/mL
same,MIC,[5],> 25 µg/mL
same,MIC,Fusarium graminearum,0.78 to 1.56 µg/mL
same,MIC,Penicillium chrysogenum,0.1 µg/mL
same,MIC,[1],0.78 to 1 µg/mL
same,MIC,Alternaria solani,1 to 1.56 µg/mL
same,MIC,Botrytis cinerea 10-1728,0.2 to 0.5 µg/mL
same,MIC,[4],12.5 to 25 µg/mL
same,MIC,Aspergillus niger,0.39 to 1 µg/mL
same,MIC,Candida albicans,0.78 µg/mL
same,MIC,Fusarium verticillioides,0.75 to 0.78 µg/mL
"CO/C=C(/C(=O)OC)c1ccccc1Oc1cc(Oc2ccccc2C#N)ncn1 [Azoxystrobin, azoxystrobin]",Independent MIC,Pythium aphanodermatum,6.25 µg/mL
same,Independent MIC,Mucor sp.,200 µg/mL
same,Independent MIC,Aspergillus fumigatus,(50-100) μg/mL
same,Independent MIC,Botrytis cinerea B17,(12.5-25)^ μg/mL
same,Independent MIC,Fusarium graminearum,400 µg/mL
same,Independent MIC,Penicillium chrysogenum,(0.39-1.5) μg/mL
same,Independent MIC,[1],20 µg/mL
same,Independent MIC,Stachybotrys chartarum,(25-50) μg/mL
same,Independent MIC,Alternaria solani,100 µg/mL
same,Independent MIC,Phytophthora pini,100 µg/mL
same,Independent MIC,Botrytis cinerea 10-1728,(110-400) μg/mL
"Nc1ccc2c(c1)COB2O [B2, 5-Amino-1,3-dihydro-2,1-benzoxaborol-1-ol]",MIC,Sclerotinia homoeocarpa,> 32 µg/mL
same,MIC,Rhizopus sp.,> 32 µg/mL
same,MIC,Aspergillus flavus; [6],> 32 µg/mL
same,MIC,Mucor sp.,> 32 µg/mL
same,MIC,Aureobasidium pullulans,> 32 µg/mL
same,MIC,Aspergillus fumigatus,> 32 µg/mL
same,MIC,Botrytis cinerea B17,> 32 µg/mL
same,MIC,[1],> 32 µg/mL
same,MIC,Stachybotrys chartarum,> 32 µg/mL
same,MIC,[3],> 32 µg/mL
same,MIC,Alternaria solani,> 32 µg/mL
same,MIC,Fusarium oxysporum ST33,> 32 µg/mL
same,MIC,Botrytis cinerea 10-1728,> 32 µg/mL
same,MIC,[4],> 32 µg/mL
same,MIC,Aspergillus niger,> 32 µg/mL
same,MIC,Fusarium verticillioides,> 32 µg/mL
c1ccc2[nH]c(-c3cscn3)nc2c1 [Thiabendazole],MIC,Sclerotinia homoeocarpa,20 to 25 µg/mL
same,MIC,Aspergillus flavus; [6],12.5 to 40 µg/mL
same,MIC,Pythium aphanodermatum,200 to 400 µg/mL
same,MIC,Aureobasidium pullulans,0.2 to 0.39 µg/mL
same,MIC,Aspergillus fumigatus,12.5 to 50 µg/mL
same,MIC,Botrytis cinerea B17,50 µg/mL
same,MIC,Fusarium graminearum,1.5 to 3.12 µg/mL
same,MIC,Penicillium chrysogenum,0.375 to 0.39 µg/mL
same,MIC,[1],12.5 to 25 µg/mL
same,MIC,Stachybotrys chartarum,25 to 30 µg/mL
same,MIC,Magnaporthe grisea,1.56 to 3.13 µg/mL
same,MIC,[3],200 to 400 µg/mL
same,MIC,Fusarium oxysporum ST33,25 to 80 µg/mL
same,MIC,Phytophthora pini,100 µg/mL
same,MIC,Botrytis cinerea 10-1728,200 to 400 µg/mL
same,MIC,Aspergillus niger,12.5 to 50 µg/mL
same,MIC,Fusarium verticillioides,3 to 6.25 µg/mL
